Experimental data reported in PMC10216263, “Favorable Preclinical Pharmacological Profile of a Novel Antimalarial Pyrrolizidinylmethyl Derivative of 4-amino-7-chloroquinoline with Potent In Vitro and In Vivo Activities” (Biomolecules, 2023).

How the values were obtained:
P. chabaudi AS = assay: Four-day suppressive Peters' test, oral; type: in vivo, P. chabaudi in CD1 mice; settings: once a day for 4 days, parasitemia day 4, CD1 mice
Protocol: (§1) Groups of five CD1 mice were inoculated i.v., with 4 × 10^6 infected erythrocytes/mice. Compounds, dissolved in standard suspending formula (SSV) (0.5% sodium carboxymethylcellulose, 0.5% benzyl alcohol, 0.4% Tween 80, and 0.9% NaCl), were administered once a day for 4 days via oral gavage, starting two hours post-infection. […] Parasitemia was evaluated using microscopic examination of Giemsa-stained blood films taken on day four, processed using MICROSOFT® EXCEL spreadsheets (Microsoft Corp., Redmond, WA, USA), and expressed as percentages of inhibition from the arithmetic mean parasitemia of each group in relation to the untreated group. ED50 and ED90 values were calculated using GraphPad Prism 6 (GraphPad Software Inc., La Jolla, CA, USA).

P. yoelii NS = assay: Four-day suppressive Peters' test, oral; type: in vivo, P. yoelii in CD1 mice; settings: once a day for 4 days, parasitemia day 4, CD1 mice
Protocol: as §1

[1] = Tissue distribution in rat; type: in vivo, female Sprague Dawley rats; settings: single oral 120 mg/kg
Protocol: Female Sprague Dawley rats (Charles River, Italy) (2–4/time points) were orally administered with a single dose of 120 mg/kg of MG3 at a constant dose volume of 10 mL/kg; dose and gender were selected based on previous toxicological studies. Two female rats were included as untreated controls. Plasma samples and tissues, i.e., adrenal glands, hearth, kidney, liver, lung, lymph nodes, spleen, ovaries, thymus, and skeletal muscle were collected at 4, 24, 48, 72 and 96 h after administration by animals killed by exsanguination under sodium thiopental anesthesia. Blood was put in heparinized plastic tubes kept on ice-water bath, then centrifuged (10 min, 1200 rpm, +4 °C). One aliquot of about 100 µL of plasma was stored at –80 °C until analysis. Samples of selected organs/tissues were collected, put in plastic cassettes and frozen over liquid nitrogen. Then, organs were thawed out, weighted, and sliced. Homogenates were prepared with ultrasonication on ice in Dulbecco buffer (10 μL/mg of tissue). The addition of 400 μL of methanol to 10 μL of homogenate in a 96-well plate allowed the precipitation of proteins. After capping and vortex mixing, the plate was centrifuged for 15 min at 3700 rpm at 6 °C, and an aliquot of 360 μL of supernatant transferred to a new plate and dried down under nitrogen stream (40 °C). The extract was reconstituted in 150 μL of 10 mM ammonium formate pH 3.5: methanol (90:10, v/v) and analyzed using the LC-MS-MS method, as described in Pharmacokinetic studies in rat paragraph. 1 ng/mL and 10 ng/g were the lower limits of quantitation for plasma and tissue, respectively.

7-day oral DRF in dog = type: in vivo, Beagle dog; settings: dogs, 15 and 30 mg/kg/day oral, 7 days
Protocol: Seven days oral DRF in rats and dog, and five days oral DRF in Non-Human Primates (NHP) were performed using Sprague Dawley rats (n = 3/time point) of both sexes, one male and one female dog Beagle (Marshall/Green Hill) and one male and one female monkeys/Cynomolgus (Noveprim Ltd., Mahebourg Mauritius,). MG3 was administered as oral suspension in 0.5% methocel in water (400 cP viscosity) at the following doses: 30, 60 and 120 mg/kg/day for 7 days (rat), 15 and 30 mg/kg/days for 7 days (dog) and 25, 50 and 75 mg/kg/day (NHP). No Observed Effects Levels (NOEL) were determined. Mortality, behavior, and general conditions were observed daily. Body weight was recorded pre-test, and on Days 1, 4 and 7. Food consumption was recorded from Days 1 to 4 and 4 to 7. Hematological and clinical chemistry examinations were performed on Day 8. All animals were sacrificed under anesthesia at the end of the treatment period on Day 8 of study. Post-mortem examinations included necropsy, collection, and histological examination performed of selected organs/tissues.

P. falciparum D10 (CQ-S) = tested on: P. falciparum D10 (CQ-S); design: method as in PMID 18538567; settings: 72 h incubation, pLDH method, mean of 3 experiments; cited from earlier work
[2] = CD1, mouse, in vivo, po, 10 mg/kg
[3] = tested on: Salmonella typhimurium TA100; assay: Bacterial Reverse Mutation Assay; settings: TA 100, with metabolic activation
Protocol: using the preincubation method (30 min, 37°C) with and without phenobarbital-5,6-benzoflavone induced
MG3 was dissolved in distilled water (H2O) at
the maximum concentration of 40 mg/mL and tested in a preliminary range-finding test in all strains of
metabolic activation to determine the toxicity of the compound.

SMILES: Clc1ccc2c(NCC34CCCN3CCC4)ccnc2c1 [MG3, 7-Chloro-N-((hexahydro-1H-pyrrolizin-7a-yl)methyl)quinolin-4-amine]
- ED50 (P. chabaudi AS; Plasmodium chabaudi, 96 h, read-out: ED50 (95% CI) Mean): 4.69 mg/kg
- ED90 (95% CI) Mean (P. chabaudi AS): 9.80 (8.86–10.6) mg/kg
- ED50 (P. yoelii NS; Plasmodium yoelii, 96 h, read-out: ED50 (95% CI) Mean): 5.01 mg/kg
- ED90 (95% CI) Mean (P. yoelii NS): 8.98 (6.70–12.02) mg/kg
- tissues with the highest concentration [1]: lungs and ovaries
- concentration in tissues versus plasma ([1]; all time points 4–96 h): higher than in plasma
- detected in all the analyzed tissues up to ([1]; post dose): 96 h
- toxicity finding (7-day oral DRF in dog): associated with mortality one week after last treatment due to acute renal failure
- IC50 (P. falciparum D10 (CQ-S)): 30.6 nM
- AUClast [2]: 41,067 min*ng/mL
- fold increase value (ratio treated/solvent revertant numbers) ([3]; I° Exp., 62.5 µg/plate): 0.6
- fold increase value (ratio treated/solvent revertant numbers) ([3]; I° Exp., 125 µg/plate): 0.6
- fold increase value (ratio treated/solvent revertant numbers) ([3]; I° Exp., 250 µg/plate): 0.8
- fold increase value (ratio treated/solvent revertant numbers) ([3]; I° Exp., 500 µg/plate): 0.8
- fold increase value (ratio treated/solvent revertant numbers) ([3]; I° Exp., 1000 µg/plate): 0.8
- fold increase value (ratio treated/solvent revertant numbers) ([3]; Range finding, 1.95 µg/plate): 1.1
- fold increase value (ratio treated/solvent revertant numbers) ([3]; Range finding, 3.9 µg/plate): 1.1
- fold increase value (ratio treated/solvent revertant numbers) ([3]; Range finding, 7.81 µg/plate): 1.2
- fold increase value (ratio treated/solvent revertant numbers) ([3]; Range finding, 15.63 µg/plate): 0.9
- fold increase value (ratio treated/solvent revertant numbers) ([3]; Range finding, 31.25 µg/plate): 1.0
- fold increase value (ratio treated/solvent revertant numbers) ([3]; Range finding, 62.5 µg/plate): 1.0
- fold increase value (ratio treated/solvent revertant numbers) ([3]; Range finding, 125 µg/plate): 1.0
- fold increase value (ratio treated/solvent revertant numbers) ([3]; Range finding, 250 µg/plate): 1.0
- fold increase value (ratio treated/solvent revertant numbers) ([3]; Range finding, 500 µg/plate): 1.2
- fold increase value (ratio treated/solvent revertant numbers) ([3]; Range finding, 1000 µg/plate): 0.7
